We go through 18 compounds from ChEMBL document CHEMBL1909046, “DrugMatrix in vitro pharmacology data”.

Data set [1] concerns the target Mu-type opioid receptor (Homo sapiens, UniProt P35372). Kind of data set: DRUGMATRIX: Opiate mu (OP3, MOP) radioligand binding (ligand: [3H] Diprenorphine). The format is cell membranes, CHO-K1, Membrane. Conditions: Not Active = under 50% inhibition at 10 µM.
Data set [2] deals with T1, Androgen receptor (Rattus norvegicus, UniProt P15207).
T1 sequence (P15207 whole entry): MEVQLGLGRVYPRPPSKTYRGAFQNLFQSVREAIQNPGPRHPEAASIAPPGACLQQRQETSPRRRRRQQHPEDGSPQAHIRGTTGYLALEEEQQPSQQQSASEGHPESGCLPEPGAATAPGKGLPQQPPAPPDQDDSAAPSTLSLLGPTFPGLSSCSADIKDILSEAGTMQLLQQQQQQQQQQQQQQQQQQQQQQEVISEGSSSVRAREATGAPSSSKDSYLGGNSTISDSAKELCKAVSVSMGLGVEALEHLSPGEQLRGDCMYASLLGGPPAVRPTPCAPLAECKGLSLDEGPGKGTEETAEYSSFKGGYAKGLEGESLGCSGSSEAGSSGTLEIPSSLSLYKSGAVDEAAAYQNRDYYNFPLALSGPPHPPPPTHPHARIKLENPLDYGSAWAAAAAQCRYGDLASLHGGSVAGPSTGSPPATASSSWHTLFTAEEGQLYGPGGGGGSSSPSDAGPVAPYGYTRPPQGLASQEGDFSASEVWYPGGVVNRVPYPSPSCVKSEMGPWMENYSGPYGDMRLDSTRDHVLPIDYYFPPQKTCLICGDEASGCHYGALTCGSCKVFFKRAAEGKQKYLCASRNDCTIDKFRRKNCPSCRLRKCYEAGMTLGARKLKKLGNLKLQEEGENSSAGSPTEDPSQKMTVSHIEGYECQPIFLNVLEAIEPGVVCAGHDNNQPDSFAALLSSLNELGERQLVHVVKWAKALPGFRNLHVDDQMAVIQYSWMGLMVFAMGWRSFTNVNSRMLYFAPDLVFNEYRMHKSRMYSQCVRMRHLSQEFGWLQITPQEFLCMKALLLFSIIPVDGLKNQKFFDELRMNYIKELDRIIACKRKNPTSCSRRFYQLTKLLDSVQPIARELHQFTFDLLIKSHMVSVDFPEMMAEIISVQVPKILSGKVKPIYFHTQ

The target in data set [3] is Cytochrome P450 2D6 (Homo sapiens, UniProt P10635). Further: in other assays of this panel Not Active means under 50% inhibition at 10 µM.
For data set [4], the target named is T2, Alpha-2A adrenergic receptor (Homo sapiens, UniProt P08913). Further: in other assays of this panel Not Active means under 50% inhibition at 10 µM.
T2 sequence (P08913 whole entry): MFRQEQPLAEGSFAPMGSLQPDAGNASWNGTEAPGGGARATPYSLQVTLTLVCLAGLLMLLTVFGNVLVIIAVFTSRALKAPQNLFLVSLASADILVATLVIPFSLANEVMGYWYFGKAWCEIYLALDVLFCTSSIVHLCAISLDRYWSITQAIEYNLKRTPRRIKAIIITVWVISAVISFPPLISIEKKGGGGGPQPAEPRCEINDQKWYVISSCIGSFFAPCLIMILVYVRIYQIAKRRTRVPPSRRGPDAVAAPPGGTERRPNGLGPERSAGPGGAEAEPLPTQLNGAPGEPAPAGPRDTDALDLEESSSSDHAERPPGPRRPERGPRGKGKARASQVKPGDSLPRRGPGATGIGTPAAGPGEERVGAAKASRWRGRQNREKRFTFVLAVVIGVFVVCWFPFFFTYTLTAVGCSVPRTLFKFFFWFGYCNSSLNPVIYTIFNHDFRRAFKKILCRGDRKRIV
It is filed as cell membranes, Sf9, Membrane.

In data set [5] the target is T3, Cytochrome P450 2C19 (Homo sapiens, UniProt P33261). To be noted: bti-tn-5b1-4.
In data set [6] the target is T4, Cytochrome P450 1A2 (Homo sapiens, UniProt P05177). Further: in other assays of this panel Not Active means under 50% inhibition at 10 µM.
T4 sequence (P05177 whole entry): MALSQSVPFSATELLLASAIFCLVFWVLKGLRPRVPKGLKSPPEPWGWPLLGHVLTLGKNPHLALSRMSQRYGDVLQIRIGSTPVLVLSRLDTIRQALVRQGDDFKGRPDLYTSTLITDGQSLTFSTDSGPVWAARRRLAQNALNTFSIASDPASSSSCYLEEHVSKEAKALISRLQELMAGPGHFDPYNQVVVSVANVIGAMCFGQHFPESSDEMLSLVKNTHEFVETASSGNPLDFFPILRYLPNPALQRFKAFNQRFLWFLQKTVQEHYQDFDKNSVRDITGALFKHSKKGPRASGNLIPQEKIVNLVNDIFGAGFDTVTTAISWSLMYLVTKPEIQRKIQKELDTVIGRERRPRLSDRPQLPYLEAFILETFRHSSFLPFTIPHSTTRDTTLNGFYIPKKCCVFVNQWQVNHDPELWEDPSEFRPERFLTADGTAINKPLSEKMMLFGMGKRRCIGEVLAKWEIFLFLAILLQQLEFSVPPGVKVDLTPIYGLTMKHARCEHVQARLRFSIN

For data set [7], the target named is Cytochrome P450 2C9 (Homo sapiens, UniProt P11712). Further: in other assays of this panel Not Active means under 50% inhibition at 10 µM.
The target in data set [8] is T3, Cytochrome P450 2C19.
Data set [9] concerns the target T5, Cytochrome P450 3A4 (Homo sapiens, UniProt P08684). Conditions: bti-tn-5b1-4.
Data set [10] concerns the target T5, Cytochrome P450 3A4.

Sequence of Cytochrome P450 2D6 (P10635 whole entry): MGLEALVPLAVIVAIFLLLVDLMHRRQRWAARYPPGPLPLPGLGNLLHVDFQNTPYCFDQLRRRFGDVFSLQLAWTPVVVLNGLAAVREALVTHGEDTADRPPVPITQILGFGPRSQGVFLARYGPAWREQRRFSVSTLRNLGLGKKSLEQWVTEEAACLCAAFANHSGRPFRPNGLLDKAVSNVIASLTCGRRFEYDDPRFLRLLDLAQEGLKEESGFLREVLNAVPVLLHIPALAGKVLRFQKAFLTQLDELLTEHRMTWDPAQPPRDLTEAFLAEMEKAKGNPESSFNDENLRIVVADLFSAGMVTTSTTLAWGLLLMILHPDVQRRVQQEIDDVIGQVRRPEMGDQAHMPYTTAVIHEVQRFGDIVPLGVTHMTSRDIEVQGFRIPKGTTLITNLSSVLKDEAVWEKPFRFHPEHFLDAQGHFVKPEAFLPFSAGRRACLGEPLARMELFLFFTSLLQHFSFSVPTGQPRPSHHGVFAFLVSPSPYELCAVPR
T5 sequence (P08684 whole entry): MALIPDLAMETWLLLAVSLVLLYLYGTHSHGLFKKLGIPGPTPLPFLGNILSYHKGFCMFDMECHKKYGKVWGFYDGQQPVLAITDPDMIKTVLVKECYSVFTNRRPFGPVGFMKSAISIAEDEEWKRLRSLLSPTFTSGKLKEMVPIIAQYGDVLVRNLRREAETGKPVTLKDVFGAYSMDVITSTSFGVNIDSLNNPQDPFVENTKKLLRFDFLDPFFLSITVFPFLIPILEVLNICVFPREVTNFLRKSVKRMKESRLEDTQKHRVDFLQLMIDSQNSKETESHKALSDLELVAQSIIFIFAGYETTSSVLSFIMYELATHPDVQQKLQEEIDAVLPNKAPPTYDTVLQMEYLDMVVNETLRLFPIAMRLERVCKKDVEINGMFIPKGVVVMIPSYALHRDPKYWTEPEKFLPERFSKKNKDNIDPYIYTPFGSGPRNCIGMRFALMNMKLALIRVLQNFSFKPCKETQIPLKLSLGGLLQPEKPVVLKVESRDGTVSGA
T3 sequence (P33261 whole entry): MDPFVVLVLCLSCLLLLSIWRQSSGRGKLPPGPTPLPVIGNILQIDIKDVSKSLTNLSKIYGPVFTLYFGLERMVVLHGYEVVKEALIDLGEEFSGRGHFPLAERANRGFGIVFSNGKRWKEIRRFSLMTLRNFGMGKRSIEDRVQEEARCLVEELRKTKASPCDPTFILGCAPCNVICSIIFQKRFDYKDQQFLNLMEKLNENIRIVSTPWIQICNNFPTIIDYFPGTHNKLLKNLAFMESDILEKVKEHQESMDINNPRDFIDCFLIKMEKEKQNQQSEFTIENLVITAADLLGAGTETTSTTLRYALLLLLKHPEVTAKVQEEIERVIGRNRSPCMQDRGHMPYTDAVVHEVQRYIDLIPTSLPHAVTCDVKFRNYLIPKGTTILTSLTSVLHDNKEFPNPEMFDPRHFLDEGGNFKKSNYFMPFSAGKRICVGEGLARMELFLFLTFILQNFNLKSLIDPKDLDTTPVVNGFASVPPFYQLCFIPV
Sequence of Cytochrome P450 2C9 (P11712 whole entry): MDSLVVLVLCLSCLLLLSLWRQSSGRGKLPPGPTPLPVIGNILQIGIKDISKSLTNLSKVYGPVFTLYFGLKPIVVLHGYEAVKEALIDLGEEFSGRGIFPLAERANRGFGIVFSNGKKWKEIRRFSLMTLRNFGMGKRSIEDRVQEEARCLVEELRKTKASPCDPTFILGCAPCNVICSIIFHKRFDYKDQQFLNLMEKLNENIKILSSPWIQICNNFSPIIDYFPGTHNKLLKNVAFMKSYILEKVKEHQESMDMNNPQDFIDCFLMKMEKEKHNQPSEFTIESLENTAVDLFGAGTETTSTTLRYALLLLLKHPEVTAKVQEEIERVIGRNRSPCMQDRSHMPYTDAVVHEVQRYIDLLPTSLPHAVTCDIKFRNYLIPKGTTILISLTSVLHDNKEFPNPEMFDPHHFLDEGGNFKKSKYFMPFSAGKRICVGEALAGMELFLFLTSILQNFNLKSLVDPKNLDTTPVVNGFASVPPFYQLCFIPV
Sequence of Mu-type opioid receptor (P35372 whole entry): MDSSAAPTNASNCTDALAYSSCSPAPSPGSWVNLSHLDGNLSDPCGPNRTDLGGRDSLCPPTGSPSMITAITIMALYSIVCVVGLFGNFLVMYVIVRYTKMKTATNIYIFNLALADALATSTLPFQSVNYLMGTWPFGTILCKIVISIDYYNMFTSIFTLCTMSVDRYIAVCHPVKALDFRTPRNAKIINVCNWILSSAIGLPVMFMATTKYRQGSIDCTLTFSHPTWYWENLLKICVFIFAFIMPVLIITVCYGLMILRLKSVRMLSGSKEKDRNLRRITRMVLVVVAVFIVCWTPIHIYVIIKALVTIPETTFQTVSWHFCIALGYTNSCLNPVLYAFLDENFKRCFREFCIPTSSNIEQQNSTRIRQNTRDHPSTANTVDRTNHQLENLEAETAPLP

For the compound `Nc1nc(N)c2nc(-c3ccccc3)c(N)nc2n1`, the IC50 (commonly the concentration at which inhibition is half-maximal) in data set [1] (cho-k1) was “Not Active”; in [2], “Not Active”; in [3], 10 µM; in data set [4] (sf9), “Not Active”; in [5] it was “Not Active”. Besides, the Ki (as a rule, a measure of affinity in units of concentration, obtained from inhibition or displacement) in data set [5] is recorded as “Not Active”.
With `CCOc1cc(N)c(Cl)cc1C(=O)NCC1CN(Cc2ccc(F)cc2)CCO1` (configuration not stated) [MOSAPRIDE], the IC50 entry in data set [1] (cho-k1) was “Not Active”; in data set [4] (read-out: IC50) it was 3.68 µM; in data set [6] it was 0.4 µM; in data set [7], 1 µM; in [8], 1 µM. For the same compound, the Ki in data set [4] (read-out: Ki) worked out at 1.38 µM.
For `C#C[C@]1(O)CC[C@H]2[C@@H]3[C@H](C)CC4=C(CCC(=O)C4)[C@H]3CC[C@@]21C` [TIBOLONE], the IC50 entry was “Not Active” in [9], “Not Active” in data set [1] (cho-k1), “Not Active” in data set [4] (sf9) and 3 µM in data set [8]. For the same compound, the Ki result in [9] is listed as “Not Active”.
`CC[C@H](C)[C@@H](CO[C@@H](Cc1ccccc1)C(=O)N[C@@H](CCS(C)(=O)=O)C(=O)OC(C)C)NC[C@@H](N)CS`: the half-maximal inhibitory concentration (IC50) result in [1] (cho-k1) is “Not Active”; in data set [10], 3 µM; in data set [2], “Not Active”; in [3], 0.7 µM; in data set [4] (read-out: IC50) it was 0.432 µM; in [5], “Not Active”. Besides, the inhibitory constant (Ki) is 0.162 µM in [4] (read-out: Ki) and “Not Active” in [5].
Take `O=[As][O-].[Na+]` [SODIUM ARSENITE]: the IC50 result in data set [9], in data set [2], in data set [4] (sf9) and in [5] was “Not Active” throughout. Besides, the Ki result in data set [9] and in [5] was “Not Active” in each case.
On to `CCOC(=O)C1=C(C)NC(C)=C(C(=O)OCC)C1c1ccccc1/C=C/C(=O)OC(C)(C)C` [LACIDIPINE], for which the IC50 result is “Not Active” in data set [1] (cho-k1), “Not Active” in data set [4] (sf9), 2 µM in data set [7] and 2 µM in data set [8].
For the compound LEAD(IV) ACETATE, the IC50 result in data set [9], in [2], in data set [4] (sf9) and in data set [5] was “Not Active” each time. Besides, the Ki entry in data set [9], in data set [2], in [4] (sf9) and in data set [5] was “Not Active” throughout.
Consider `CCN1CCCC1CNC(=O)c1cc(S(N)(=O)=O)ccc1OC` (configuration not stated) [SULPIRIDE], for which the IC50 entry is “Not Active” in [9]; “Not Active” in [1] (cho-k1); “Not Active” in data set [2]; 2.02 µM in [4] (read-out: IC50); “Not Active” in data set [5]. The values for the Ki entry in data set [9], in data set [4] (read-out: Ki) and in [5] were “Not Active”, 0.757 µM and “Not Active”, respectively.
In the case of `CC[C@H](C)C(=O)O[C@H]1CCC=C2C=C[C@H](C)[C@H](CC[C@@H]3C[C@@H](O)CC(=O)O3)[C@H]21` [MEVASTATIN], the IC50 result in data set [9], in [1] (cho-k1), in data set [2], in data set [4] (sf9) and in data set [5] was “Not Active” in each case. The Ki entry in data set [9] and in data set [5] was “Not Active” in each case.
In the case of `Oc1ccc(/C=C/c2cc(O)cc(O)c2)cc1` [RESVERATROL], the IC50 entry in [2] and in [4] (sf9) was “Not Active” throughout.
For `O=C(OC[C@H]1O[C@@H](OC(=O)c2cc(O)c(O)c(OC(=O)c3cc(O)c(O)c(O)c3)c2)[C@H](OC(=O)c2cc(O)c(O)c(OC(=O)c3cc(O)c(O)c(O)c3)c2)[C@@H](OC(=O)c2cc(O)c(O)c(OC(=O)c3cc(O)c(O)c(O)c3)c2)[C@@H]1OC(=O)c1cc(O)c(O)c(OC(=O)c2cc(O)c(O)c(O)c2)c1)c1cc(O)c(O)c(OC(=O)c2cc(O)c(O)c(O)c2)c1` [TANNIC ACID], the IC50 entry in [9] is “Not Active”; in [1] (cho-k1), “Not Active”; in [4] (sf9) it was “Not Active”; in data set [6] it was 0.919 µM; in [5] it was “Not Active”; in [7], 4.61 µM. For the same compound, the Ki result in [9] and in data set [5] was “Not Active” throughout.
On to `C=CCc1ccc2c(c1)OCO2` [SAFROLE], for which the IC50 result in [9] is “Not Active”; in data set [1] (cho-k1) it was “Not Active”; in data set [4] (sf9), “Not Active”; in data set [6] it was 10 µM; in data set [5], “Not Active”. Moreover, the Ki result in [9] and in [5] was “Not Active” in each case.
Take `Cc1nnc(NS(=O)(=O)c2ccc(N)cc2)s1` [SULFAMETHIZOLE]: the IC50 result in data set [9], in data set [1] (cho-k1), in data set [2], in [4] (sf9) and in data set [5] was “Not Active” each time. The inhibition constant Ki result in [9] and in data set [5] was “Not Active” each time.
In the case of `CCN(CC)CCNC(=O)c1cc(Cl)c(N)cc1OC` [METOCLOPRAMIDE], the IC50 entry in data set [9] was “Not Active”; in [1] (cho-k1), “Not Active”; in data set [3], 0.8 µM; in data set [4] (read-out: IC50), 2.72 µM; in data set [5], “Not Active”. Further, the values for the Ki entry in data set [9], in data set [4] (read-out: Ki) and in data set [5] were “Not Active”, 1.02 µM and “Not Active”, respectively.
As to `COC(=O)Nc1nc2ccc(C(=O)c3ccccc3)cc2[nH]1` [MEBENDAZOLE], the IC50 entry in data set [9], in data set [1] (cho-k1), in data set [2], in data set [4] (sf9) and in data set [5] was “Not Active” each time. Also, the Ki entry in data set [9] and in data set [5] was “Not Active” throughout.
Regarding `CN(C)CCC=C1c2ccccc2COc2ccccc21` [DOXEPIN], the IC50 result in data set [9], in data set [1] (cho-k1), in data set [2] and in data set [5] was “Not Active” in each case. Also, the Ki entry in data set [9] and in [5] was “Not Active” in each case.
In the case of `CC(N)C12CC3CC(CC(C3)C1)C2` (configuration not stated) [RIMANTADINE], the IC50 result in data set [9], in data set [1] (cho-k1), in [4] (sf9) and in data set [5] was “Not Active” in each case. Besides, the Ki result in data set [9] and in data set [5] was “Not Active” in each case.
For `CCN(CC)C(=S)SSC(=S)N(CC)CC`, the IC50 entry in data set [9] is “Not Active”; in data set [1] (read-out: IC50), 3.51 µM; in [2], “Not Active”; in data set [6], 4 µM; in data set [5], “Not Active”. In addition, the Ki result is “Not Active” in data set [9], 1.42 µM in data set [1] and “Not Active” in data set [5].
